Source: publication PMC9814530, “Rapid de novo discovery of peptidomimetic affinity reagents for human angiotensin converting enzyme 2” (Communications Chemistry, 2022)
*1 amine or outer side, *2 acyl side, *3 side chain or, on linkers, in order; H or OH if unused. Where a SMILES comes first, the peptide text is derived from it. Where no end group is shown, it is not given here. [ ]: non-standard residue; d: D form. Phe(3,4-(OMe)2) = COc1ccc(C[C@H](N)C(=O)O)cc1OC; Phe(3,4-F2) = N[C@@H](Cc1ccc(F)c(F)c1)C(=O)O; Ala(4-thiazolyl) = N[C@@H](Cc1cscn1)C(=O)O; X1 = O=C(C1(c2ccccc2)CCN([*:1])CC1)[*:2]; Phe(4-NH2) = Nc1ccc(C[C@H](N)C(=O)O)cc1; Met(O2) = CS(=O)(=O)CC[C@H](N)C(=O)O; Ala(cPr) = N[C@@H](CC1CC1)C(=O)O; Hyp = O=C(O)[C@@H]1C[C@@H](O)CN1; hArg = N=C(N)NCCCC[C@H](N)C(=O)O; Cha = N[C@@H](CC1CCCCC1)C(=O)O; 4Amb = NCc1ccc(C(=O)O)cc1; β3hS = N[C@@H](CO)CC(=O)O; Orn = NCCC[C@H](N)C(=O)O; βAla = NCCC(=O)O

Key:
ACE2 [1] = molecular target: T1, ACE2 (Homo sapiens, UniProt Q9BYF1); assay: BLI binding competition of known ACE2 binders (AngII, MLN-4760) on the ABP-ACE2 interaction; set-up: Soluble ACE2 (5 µL, 0.62 mg/mL) was mixed with 50 µL normal human serum; settings: immobilized biotinylated peptide; for inhibition of ABP binding to ACE2 by AngII: 500 nM ACE2 + 5 uM AngII (10-fold excess); for inhibition of ABP binding to ACE2 by MLN-4760: 500 nM ACE2 + 5 uM MLN-4760 (10-fold excess)
T1 sequence (Q9BYF1 18-740 limits assumed): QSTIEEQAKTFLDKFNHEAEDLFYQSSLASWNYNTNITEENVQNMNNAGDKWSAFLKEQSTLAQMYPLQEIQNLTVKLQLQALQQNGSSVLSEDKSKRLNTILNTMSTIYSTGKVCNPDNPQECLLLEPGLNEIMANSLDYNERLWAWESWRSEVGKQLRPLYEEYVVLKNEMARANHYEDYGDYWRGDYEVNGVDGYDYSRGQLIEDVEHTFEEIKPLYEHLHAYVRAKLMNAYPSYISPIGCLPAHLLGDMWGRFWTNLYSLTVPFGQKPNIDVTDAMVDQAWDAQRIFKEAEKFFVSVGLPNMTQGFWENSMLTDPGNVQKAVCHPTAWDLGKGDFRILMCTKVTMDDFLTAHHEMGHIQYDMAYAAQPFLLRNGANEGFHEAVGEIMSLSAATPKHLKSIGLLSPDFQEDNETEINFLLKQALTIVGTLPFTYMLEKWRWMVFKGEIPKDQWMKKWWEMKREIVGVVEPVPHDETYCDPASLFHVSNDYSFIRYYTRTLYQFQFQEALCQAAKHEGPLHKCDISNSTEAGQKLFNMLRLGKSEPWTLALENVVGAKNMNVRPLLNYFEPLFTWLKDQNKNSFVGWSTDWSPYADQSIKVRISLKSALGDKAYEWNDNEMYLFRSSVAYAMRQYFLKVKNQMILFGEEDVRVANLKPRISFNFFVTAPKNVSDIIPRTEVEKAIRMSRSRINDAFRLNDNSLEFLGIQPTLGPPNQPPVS

12ca5 = assay: BLI binding to an unrelated (off-target) protein; settings: BLI, 12ca5 at 500 nM
Protocol: Peptide binding validation was carried out using the ForteBio Octet RED96 system. The chamber temperature was kept constant at 30 °C with a plate agitation speed at 1000 rpm. Briefly, streptavidin (SA)-coated biosensor tips were dipped into 200 μL of 1.0–2.0 μM biotinylated peptide solution (in a kinetic buffer (K.B.): 1 × PBS with 0.1% BSA and 0.02% Tween-20) for peptides immobilization. Once loaded with peptides, the tips were then moved into solutions containing various concentrations (1000, 500, 250, 125, and 62.5 nM) of recombinant ACE2 protein (purchased from Sino Biological, Catalog number 10108-H08H) in the K.B. to obtain the association curve. After the 180 s association step, the tips were moved back into the K.B. to obtain the dissociation curve. Buffer-only and protein-only conditions (concentration at 1000 nM) were used as references for background subtraction. The association and dissociation curves were fitted with the ForteBio Biosystems Data Analysis Software under 5 experimental conditions (n = 5, global fitting algorithm, binding model 1:1) to calculate the apparent dissociation constant (KD). […]
4.4 The binding of ABP noncanonical peptides to an unrelated protein
N6, and N8 to an unrelated protein, 12ca5, measured by BLI at concentration
(§1) (1 picture or pasted object on this page, not shown here)

ACE2 [2] = molecular target: T1, ACE2; assay: Bio-layer interferometry (BLI) binding of immobilized biotinylated peptides to ACE2; settings: BLI; for binding to ACE2 by BLI (in words): scrambled peptides tested at 250 nM ACE2; for Kd: biotinylated peptide on streptavidin tips, ACE2 1000-62.5 nM, 30 °C, global 1:1 fit, read-out: KD (dissociation constant) to ACE2
Protocol: Peptide binding validation was carried out using the ForteBio Octet RED96 system. The chamber temperature was kept constant at 30 °C with a plate agitation speed at 1000 rpm. Briefly, streptavidin (SA)-coated biosensor tips were dipped into 200 μL of 1.0–2.0 μM biotinylated peptide solution (in a kinetic buffer (K.B.): 1 × PBS with 0.1% BSA and 0.02% Tween-20) for peptides immobilization. Once loaded with peptides, the tips were then moved into solutions containing various concentrations (1000, 500, 250, 125, and 62.5 nM) of recombinant ACE2 protein (purchased from Sino Biological, Catalog number 10108-H08H) in the K.B. to obtain the association curve. After the 180 s association step, the tips were moved back into the K.B. to obtain the dissociation curve. Buffer-only and protein-only conditions (concentration at 1000 nM) were used as references for background subtraction. The association and dissociation curves were fitted with the ForteBio Biosystems Data Analysis Software under 5 experimental conditions (n = 5, global fitting algorithm, binding model 1:1) to calculate the apparent dissociation constant (KD).
Supplementary Note 4: Binding affinity measurements
4.1 BLI raw binding data of noncanonical peptides […]
affinity was reported using the kinetic fitting results ( KD is calculated by divide the […]
off rate by on rate). […] The ACE2
as §1
4.2 BLI raw binding data of canonical peptides
Supplementary Fig. 20. The BLI binding curve fitting (red lines) of ABP C1-C4 and ABP C7-C9 from Library 1 AS-MS against ACE2.
ACE2 concentration was 250 nM.

ACE2 [3] = molecular target: T1, ACE2; assay: ELISA detection of ACE2 coated from 1 x PBS; type: binding; settings: ACE2 in 1 x PBS 10 pM-100 nM coated; biotinylated peptide 100 nM; streptavidin-HRP, TMB, A450
Protocol: However, we observed a decreased detection sensitivity presumably due to the decreased amount of ACE2 being immobilized on the plate with many other serum proteins present. […] The plate was incubated with ABP N1 or control peptide, followed by streptavidin-HRP and TMB substrate. Absorbance was measured at 450 nm. The experiment was performed in technical triplicates (n = 3). Each data point, the mean signal as a bar, and error bars from experimental standard deviation, and statistical significance calculated with the unpaired Student’s t-test are shown. A serial dilution of soluble ACE2 was coated onto an ELISA plate (96-well format) overnight at 4 °C. The next day, the plate was blocked with 5% BSA in 1 × PBS supplement with 0.05% Tween-20 (PBST, pH 7.4) for 2–3 h at room temperature. […] Control groups are biotinylated peptide ABP N8 and PBST alone. The supernatant was then removed, and the wells were washed with PBST (3× 200 µL). Streptavidin-HRP conjugate in PBST (0.25 µg/mL, 100 µL) was added to each well and incubated for 30 min at room temperature. The plate was PBST-washed again (3 × 200 µL) before color development with 100 µL 1-Step™ Ultra TMB-ELISA Substrate Solution (Thermo Fisher, Catalog number 34028). After 10 min, the reaction was quenched with 2.0 M sulfuric acid (100 µL). Finally, the absorbance at 450 nm was measured on a microplate reader (BioTek) for all treated wells. […]

Q: With `COc1ccc(C[C@H](NC(=O)[C@H](Cc2ccc(F)c(F)c2)NC(=O)[C@@H]2C[C@@H](O)CN2C(=O)[C@H]2CCCN2C(=O)[C@H]2CCCN2C(=O)CNC(=O)[C@H](CC2CC2)NC(=O)[C@H](Cc2cscn2)NC(=O)[C@@H](N)CC2CC2)C(=O)N[C@@H](Cc2cscn2)C(=O)NCCC(=O)NCc2ccc(C(=O)N[C@@H](CCCCN)C(N)=O)cc2)cc1OC` [ABP N4] (H-[Ala(cPr)][Ala(4-thiazolyl)][Ala(cPr)]G[dP][dP][Hyp][Phe(3,4-F2)][Phe(3,4-(OMe)2)][Ala(4-thiazolyl)][βAla][4Amb]K-NH2) as the compound, how does the “inhibition of ABP binding to ACE2 by AngII” value (ACE2 [1]) read?
A: The value was “not inhibited”.

Q: And the “inhibition of ABP binding to ACE2 by MLN-4760” value (ACE2 [1])?
A: Its value is “completely inhibited”.

Q: And the “binding to unrelated protein 12ca5 (in words)” value (12ca5)?
A: Its value is “minimal binding”.

Q: What about the “binding to unrelated protein 12ca5 (in words)” value (12ca5; listed as N4) of the same compound?
A: Its value is “No apparent binding”.

Q: For `CS(=O)(=O)CC[C@H](NC(=O)[C@H]1CCCN1C(=O)[C@H](CCC(N)=O)NC(=O)CNC(=O)[C@H](Cc1ccc(F)c(F)c1)NC(=O)[C@H](Cc1cscn1)NC(=O)[C@@H](N)CC1CC1)C(=O)N[C@@H](CC1CCCCC1)C(=O)N[C@@H](CCC(N)=O)C(=O)N[C@@H](Cc1cscn1)C(=O)NCCC(=O)N[C@@H](Cc1cscn1)C(=O)N[C@@H](CCCCN)C(N)=O` [ABP N5] (H-[Ala(cPr)][Ala(4-thiazolyl)][Phe(3,4-F2)]GQ[dP][Met(O2)][Cha]Q[Ala(4-thiazolyl)][βAla][Ala(4-thiazolyl)]K-NH2; N-terminus assumed), which “binding to ACE2 by BLI (in words)” value (ACE2 [2]) is on record?
A: The value was “no binding”.

Q: What about the “binding to unrelated protein 12ca5 (in words)” value (12ca5) of the same compound?
A: The value was “No apparent binding”.

Q: What does the source list for `CS(=O)(=O)CC[C@H](NC(=O)[C@H](Cc1ccc(F)c(F)c1)NC(=O)[C@H](CCCN)NC(=O)[C@@H](N)CC1CC1)C(=O)N1C[C@H](O)C[C@H]1C(=O)N[C@@H](Cc1cscn1)C(=O)N1CCC[C@@H]1C(=O)N[C@@H](CCC(N)=O)C(=O)N[C@@H](Cc1ccc(F)c(F)c1)C(=O)N[C@@H](CC1CCCCC1)C(=O)N[C@@H](CC1CCCCC1)C(=O)NCCC(=O)N[C@@H](CCCCN)C(N)=O` [ABP N6] (H-[Ala(cPr)][Orn][Phe(3,4-F2)][Met(O2)][Hyp][Ala(4-thiazolyl)][dP]Q[Phe(3,4-F2)][Cha][Cha][βAla]K-NH2)?
A: inhibition of ABP binding to ACE2 by AngII (ACE2 [1]): not inhibited; inhibition of ABP binding to ACE2 by MLN-4760 (ACE2 [1]): not inhibited; binding to unrelated protein 12ca5 (in words) (12ca5): minimal binding; binding to unrelated protein 12ca5 (in words) (12ca5; listed as N6): No apparent binding

Q: Which “binding to ACE2 by BLI (in words)” value (ACE2 [2]) does the source give for `CS(=O)(=O)CC[C@H](NC(=O)[C@H](Cc1ccc(F)c(F)c1)NC(=O)[C@H](CCS(C)(=O)=O)NC(=O)[C@H](CC1CCCCC1)NC(=O)[C@H](CC(=O)O)NC(=O)C1(c2ccccc2)CCN(C(=O)CCNC(=O)CNC(=O)[C@H]2CCCN2C(=O)[C@H](CCCCNC(=N)N)NC(=O)[C@H](Cc2cscn2)NC(=O)[C@@H](N)CC2CC2)CC1)C(=O)N[C@@H](CCCCN)C(N)=O` [ABP N8] (H-[Ala(cPr)][Ala(4-thiazolyl)][hArg][dP]G[βAla][X1]D[Cha][Met(O2)][Phe(3,4-F2)][Met(O2)]K-NH2; N-terminus assumed) here?
A: Its value is “no binding”.

Q: What about the “ELISA detection of ACE2 (in words)” value (ACE2 [3]) of the same compound?
A: The value was “no binding”.

Q: What about the “binding to unrelated protein 12ca5 (in words)” value (12ca5) of the same compound?
A: The value was “No apparent binding”.

Q: With `CS(=O)(=O)CC[C@H](NC(=O)C[C@H](CO)NC(=O)[C@H](CC1CC1)NC(=O)[C@@H](N)Cc1cscn1)C(=O)N[C@@H](CC1CCCCC1)C(=O)N[C@@H](Cc1cscn1)C(=O)N[C@@H](CCCN)C(=O)N[C@@H](Cc1ccc(F)c(F)c1)C(=O)N[C@@H](CCCN)C(=O)N[C@@H](CCC(N)=O)C(=O)NCC(=O)N[C@@H](Cc1ccc(N)cc1)C(=O)N[C@@H](CCCCN)C(N)=O` [Scrm N1.1] (H-[Ala(4-thiazolyl)][Ala(cPr)][β3hS][Met(O2)][Cha][Ala(4-thiazolyl)][Orn][Phe(3,4-F2)][Orn]QG[Phe(4-NH2)]K-NH2; N-terminus assumed) as the compound, how does the “binding to ACE2 by BLI (in words)” value (ACE2 [2]) read?
A: The value was “No apparent binding”.

Q: For `CS(=O)(=O)CC[C@H](N)C(=O)N[C@@H](CCCN)C(=O)N[C@@H](CC1CCCCC1)C(=O)N[C@@H](Cc1ccc(F)c(F)c1)C(=O)N[C@@H](Cc1ccc(F)c(F)c1)C(=O)N[C@@H](CO)CC(=O)NCC(=O)N[C@@H](Cc1cscn1)C(=O)N[C@@H](Cc1cscn1)C(=O)N[C@@H](CC1CC1)C(=O)N[C@@H](CCC(N)=O)C(=O)N[C@@H](CCCN)C(=O)N[C@@H](CCCCN)C(N)=O` [Scrm N1.2] (H-[Met(O2)][Orn][Cha][Phe(3,4-F2)][Phe(3,4-F2)][β3hS]G[Ala(4-thiazolyl)][Ala(4-thiazolyl)][Ala(cPr)]Q[Orn]K-NH2; N-terminus assumed), which “binding to ACE2 by BLI (in words)” value (ACE2 [2]) is on record?
A: The value was “No apparent binding”.

Q: For LHKQFGWHWFGFK-NH2 [ABP C3], which Kd (ACE2 [2]) is on record?
A: The Kd was 35 nM.

Q: How did the “binding to ACE2 by BLI (in words)” value (ACE2 [2]) turn out when LQAKPVPQFWPFK-NH2 [ABP C5] was run?
A: The value was “no binding”.

Q: For LQKFLGERFPGWK-NH2 [ABP C6], which “binding to ACE2 by BLI (in words)” value (ACE2 [2]) is on record?
A: The value was “no binding”.

Q: With LQRGVFGFPYRVK-NH2 [ABP C7] as the compound, how does the Kd (ACE2 [2]) read?
A: The Kd was 26 nM.

Q: With LQWHPAYWFMQVK-NH2 [ABP C8] as the compound, how does the Kd (ACE2 [2]) read?
A: The Kd was 36 nM.
